Source: patent publication US4594246A, “Pharmaceutically-acceptable amine salts of 6-β-halopenicillanic acids” (Leo Pharmaceutical Products, priority 1979, dated 1986)
In brackets after ≈: the same amount, converted by molar mass. Read-outs that look alike come from different tables or passages of the source.

Legend:
[1] = tested on: Staphylococcus aureus CJ9; experiment: Susceptibility of β-lactamase producing bacterial strains to β-lactam antibiotics in 1:1 combination (Table II); type: cell-based
[2] = tested on: Staphylococcus aureus CJ145; experiment: as above; type: cell-based
[3] = tested on: Klebsiella pneumoniae HE7; experiment: as above; type: cell-based
Proteus mirabilis HJ28 = experiment: as above; type: cell-based
[4] = tested on: Escherischia coli HA58 (RTEM); experiment: organism not typed; type: cell-based
β-lactamases = conditions: well known; cited from earlier work
[5] = as such or as hydrochloride; cited from earlier work
[6] = serial dilution in agar medium, inoculum 10^5 CFU, alone or in 1:1 combination (value of each partner), read-out: IC50
[7] = serial dilution in agar medium, inoculum 10^4 CFU, alone or in 1:1 combination (value of each partner), read-out: IC50

Work on `CC1(C)S[C@@H]2[C@H](NC(=O)[C@H](N)c3ccccc3)C(=O)N2[C@H]1C(=O)O` [Ampicillin] yielded an MIC [1, 6] of 10 µg/mL, an IC50 [2, 6] of 1.6 µg/mL and an IC50 [3, 7] greater than 50 µg/mL. For the same molecule, the minimum inhibitory concentration (MIC) (Proteus mirabilis HJ28; [7]) was greater than 50 µg/mL and the minimum inhibitory concentration (MIC) [4] was greater than 100 µg/mL.

Molecule `CC1(C)S[C@@H]2[C@H](NC(=O)Cc3ccccc3)C(=O)N2[C@H]1C(=O)O` [Benzylpenicillin] has an MIC [1] greater than 100 µg/mL, an IC50 [2] of 10 µg/mL and an IC50 [3] greater than 100 µg/mL. The minimum inhibitory concentration (MIC) (Proteus mirabilis HJ28) was greater than 100 µg/mL, the minimum inhibitory concentration (MIC) [4] was greater than 100 µg/mL and the “sensitivity to β-lactamases” value (β-lactamases) was “very sensitive to β-lactamases”.

With `CC1(C)S[C@@H]2[C@H](/N=C/N3CCCCCC3)C(=O)N2[C@H]1C(=O)O` [Mecillinam] the MIC [1, 6] was greater than 50 µg/mL, the IC50 [2, 6] was greater than 50 µg/mL and the IC50 [3, 7] was greater than 25 µg/mL. The minimum inhibitory concentration (MIC) (Proteus mirabilis HJ28; [7]) was 6.3 µg/mL and the minimum inhibitory concentration (MIC) [4] was 1.3 µg/mL (≈ 3.99 µM).

For `CCN(CC)CCOC(=O)[C@@H]1N2C(=O)[C@@H](NC(=O)Cc3ccccc3)[C@H]2SC1(C)C` [Penethamate], the “concentration of benzylpenicillin in the udder” value [5] is listed as “rapid and high concentration of benzylpenicillin in the udder” and the “effect in the treatment of mastitis” value [5] is listed as “very effective in the treatment of mastitis”.
